Data: patent publication US4386103A, “Dichloroamino acid derivatives useful as potent germicidal and fungicidal agents” (Merck & Co., Inc., priority 1981, dated 1983)

What was measured:
Format in all cases: cell-based
Salmonella typhimurium = assay: Contact germicidal screen, Salmonella typhimurium ATCC No. 13311
Description: (§1) The organisms used in the contact germicidal screen are all maintained as stock cultures on nutrient agar […] 4° C. They are transferred and biochemically diagnosed monthly. The five organisms used are: The media used are: […] Overnight cultures of the test organisms are grown in tryptose phosphate broth. After 15-16 hours, the cultures are centrifuged at […] for 15 minutes, and the supernatant replaced with fresh warm (37° C.) media. After two hours of incubation, the absorbance of the culture at 650 nm is determined and diluted with nutrient broth to 1×10^7 colony forming units per ml (using a previous determined standard curve: colony forming units/ml vs. absorbance at 650). The diluted cultures are maintained at 4°-8° C. throughout the screen. The compounds are weighed into sterile 100 ml volumetric flasks, and immediately before screening dissolved in one of the following buffers: 0.1 M NaOAc pH 4.6 or 0.1 M NaH2 PO4 pH 7.0. If solubility poses a problem, 10-30% methanol is used to effect solution. Two denaturing agents are also tested: […] Horse Serum restored with 100 ml distilled water and 10% Trition×100. When used, 2.5 ml of the denaturing agent is mixed with 2.5 ml of double strength test solution thirty minutes before the bacterial suspension is added. The screen is initiated when 0.2 ml of the bacterial suspension is added to 5.0 ml of the test solution contained in a sterile 25 ml glass stoppered flask. At intervals of 0.5, 2.5, 5.0, 10.0 and 15.0 minutes, a loopful of the inoculated test solution is subcultured into 5 ml of sterile nutrient broth and mixed with a vortex, the high dilution serving to stop the action of the compound. All of the subculture tubes are incubated at 37° C. and checked for signs of growth by turbidity at 1, 3, 5 and 7 days. The earliest subculture time at which no growth is present is considered the endpoint and is recorded as the sterilization time. An aliquot of 0.2 ml of the diluted culture is transferred to 5 ml of buffer to simulate 0.2 ml in 5 ml of test solution. (a) Purity: A loopful of the inoculated buffer is streaked onto nutrient agar to check colony morphology and lack of contaminants. (b) Viability: A loopful of the inoculated buffer is subcultured to 5 ml of nutrient broth as in the screen and incubated at 37° C. for 24 hours. (c) Dilution of the Test Solution: A loopful of the test solution is transferred to a 5 ml tube of nutrient broth, and a loopful of the inoculated buffer is transferred to the same tube of broth. […] (d) Purity of Organisms in the Test Solution: After the 15 minute subculture, a loopful of the inoculated test solution is streaked onto nutrient agar to insure that contamination has not occurred during the screen. (e) lack of Bactericidal Activity of Buffers and Other Solvents: Before a buffer or other solvent is used as a diluent, it is screened against the five organisms to insure that the buffer or solvent has no antibacterial activity itself.

[1] = tested on: Staphylococcus epidermidis; assay: Contact germicidal screen, Staphylococcus epidermidis ATCC No. 12228
Description: as §1

Staphylococcus aureus = assay: Contact germicidal screen, Staphylococcus aureus ATCC No. 6538
Description: as §1

[2] = 10.0+ PPM, 0.1M NaOAc pH 4.6, screened simultaneously with four other compounds
[3] = 51.0 PPM, Triton X100 (10% solution):pH 4.6 buffer 1:1
[4] = 51.0 PPM, horse serum:pH 4.6 buffer 1:1
[5] = 300 PPM with 50% Horse Serum, 0.1M NaOAc pH 4.6
[6] = 300 PPM with 50% Triton X100, 0.1M NaOAc pH 4.6
[7] = 300 PPM, pH 4.6 buffer with 10% serum
[8] = 300 PPM, pH 4.6 buffer with 20% serum
[9] = 300 PPM, pH 4.6 buffer with 35% serum
[10] = 304.6 PPM, horse serum:pH 4.6 buffer 1:1
[11] = 304.8 PPM, Triton X100 (10% solution):pH 4.6 buffer 1:1
[12] = 606.9 PPM, pH 4.6 buffer with 33% serum
[13] = 899.25 PPM, pH 4.6 buffer with 25% serum
[14] = 1000 PPM with 50% Horse Serum, 0.1M NaOAc pH 4.6
[15] = 1001.2 PPM, horse serum:pH 4.6 buffer 1:1
[16] = 1016.0 PPM, 0.1M NaH2PO4 pH 7.0

## CC(C)(CC(=O)O)N(Cl)Cl [(II)]
Salmonella typhimurium; 1.8 PPM, 0.1M NaOAc pH 4.6
  Sterilization Time: 5.0 min
Salmonella typhimurium; 4.5 PPM, 0.1M NaOAc pH 4.6
  Sterilization Time: 2.5 min
Salmonella typhimurium; [2]
  Sterilization Time: 0.5 min
Salmonella typhimurium; 10 PPM, 0.1M NaOAc pH 4.6
  Sterilization Time (summary): 0.5 min
Salmonella typhimurium; 10.0 PPM, 0.1M NaOAc pH 4.6
  Sterilization Time: 0.5 min
Salmonella typhimurium; 12.2 PPM, 0.1M NaOAc pH 4.6
  Sterilization Time: 0.5 min
Salmonella typhimurium; 32.1 PPM, 0.1M NaOAc pH 4.6
  Sterilization Time: 0.5 min
Salmonella typhimurium; [3]
  Sterilization Time: 0.5 min
Salmonella typhimurium; [4]
  Sterilization Time: 15 min
Salmonella typhimurium; 71.7 PPM, 0.1M NaOAc pH 4.6
  Sterilization Time: 0.5 min
Salmonella typhimurium; 100 PPM, 0.1M NaOAc pH 4.6
  Sterilization Time (summary): 0.5 min
Salmonella typhimurium; 104.7 PPM, 0.1M NaOAc pH 4.6
  Sterilization Time: 0.5 min
Salmonella typhimurium; 107.8 PPM, 0.1M NaH2PO4 pH 7.0
  Sterilization Time: 2.5 min
Salmonella typhimurium; 298.9 PPM, 0.1M NaOAc pH 4.6
  Sterilization Time: 0.5 min
Salmonella typhimurium; [5]
  Sterilization Time (summary): 2.5 min
Salmonella typhimurium; [6]
  Sterilization Time (summary): 0.5 min
Salmonella typhimurium; [7]
  Sterilization Time: 0.5 min
Salmonella typhimurium; [8]
  Sterilization Time: 0.5 min
Salmonella typhimurium; [9]
  Sterilization Time: 2.5 min
Salmonella typhimurium; [10]
  Sterilization Time: 2.5 min
Salmonella typhimurium; [11]
  Sterilization Time: 0.5 min
Salmonella typhimurium; 316.6 PPM, 0.1M NaH2PO4 pH 7.0
  Sterilization Time: 2.5 min
Salmonella typhimurium; [12]
  Sterilization Time: 0.5 min
Salmonella typhimurium; [13]
  Sterilization Time: 0.5 min
Salmonella typhimurium; [14]
  Sterilization Time (summary): 0.5 min
Salmonella typhimurium; 1000 PPM, 0.1M NaOAc pH 4.6
  Sterilization Time (summary): 0.5 min
Salmonella typhimurium; [15]
  Sterilization Time: 0.5 min
Salmonella typhimurium; 1014.8 PPM, 0.1M NaOAc pH 4.6
  Sterilization Time: 0.5 min
Salmonella typhimurium; [16]
  Sterilization Time: 0.5 min
[1]; 1.8 PPM, 0.1M NaOAc pH 4.6
  Sterilization Time: 15 min
[1]; 4.5 PPM, 0.1M NaOAc pH 4.6
  Sterilization Time: 10.0 min
[1]; [2]
  Sterilization Time: 2.5 min
[1]; 10 PPM, 0.1M NaOAc pH 4.6
  Sterilization Time (summary): 2.5 min
[1]; 10.0 PPM, 0.1M NaOAc pH 4.6
  Sterilization Time: 5.0 min
[1]; 12.2 PPM, 0.1M NaOAc pH 4.6
  Sterilization Time: 2.5 min
[1]; 32.1 PPM, 0.1M NaOAc pH 4.6
  Sterilization Time: 2.5 min
[1]; [3]
  Sterilization Time: 2.5 min
[1]; [4]
  Sterilization Time: 15 min
[1]; 71.7 PPM, 0.1M NaOAc pH 4.6
  Sterilization Time: 0.5 min
[1]; 100 PPM, 0.1M NaOAc pH 4.6
  Sterilization Time (summary): 0.5 min
[1]; 104.7 PPM, 0.1M NaOAc pH 4.6
  Sterilization Time: 0.5 min
[1]; 107.8 PPM, 0.1M NaH2PO4 pH 7.0
  Sterilization Time: 15.0 min
[1]; 298.9 PPM, 0.1M NaOAc pH 4.6
  Sterilization Time: 0.5 min
[1]; [5]
  Sterilization Time (summary): 15 min
[1]; [6]
  Sterilization Time (summary): 0.5 min
[1]; [7]
  Sterilization Time: 0.5 min
[1]; [8]
  Sterilization Time: 2.5 min
[1]; [9]
  Sterilization Time: 15.0 min
[1]; [10]
  Sterilization Time: 15 min
[1]; [11]
  Sterilization Time: 0.5 min
[1]; 316.6 PPM, 0.1M NaH2PO4 pH 7.0
  Sterilization Time: 10.0 min
[1]; [12]
  Sterilization Time: 0.5 min
[1]; [13]
  Sterilization Time: 0.5 min
[1]; [14]
  Sterilization Time (summary): 0.5 min
[1]; 1000 PPM, 0.1M NaOAc pH 4.6
  Sterilization Time (summary): 0.5 min
[1]; [15]
  Sterilization Time: 0.5 min
[1]; 1014.8 PPM, 0.1M NaOAc pH 4.6
  Sterilization Time: 0.5 min
[1]; [16]
  Sterilization Time: 2.5 min
Staphylococcus aureus; 1.8 PPM, 0.1M NaOAc pH 4.6
  Sterilization Time: 15.0 min
Staphylococcus aureus; 4.5 PPM, 0.1M NaOAc pH 4.6
  Sterilization Time: 10.0 min
Staphylococcus aureus; [2]
  Sterilization Time: 2.5 min
Staphylococcus aureus; 10 PPM, 0.1M NaOAc pH 4.6
  Sterilization Time (summary): 2.5 min
Staphylococcus aureus; 10.0 PPM, 0.1M NaOAc pH 4.6
  Sterilization Time: 2.5 min
Staphylococcus aureus; 12.2 PPM, 0.1M NaOAc pH 4.6
  Sterilization Time: 2.5 min
Staphylococcus aureus; 32.1 PPM, 0.1M NaOAc pH 4.6
  Sterilization Time: 2.5 min
Staphylococcus aureus; [3]
  Sterilization Time: 2.5 min
Staphylococcus aureus; [4]
  Sterilization Time: 15 min
Staphylococcus aureus; 71.7 PPM, 0.1M NaOAc pH 4.6
  Sterilization Time: 0.5 min
Staphylococcus aureus; 100 PPM, 0.1M NaOAc pH 4.6
  Sterilization Time (summary): 0.5 min
Staphylococcus aureus; 104.7 PPM, 0.1M NaOAc pH 4.6
  Sterilization Time: 0.5 min
Staphylococcus aureus; 107.8 PPM, 0.1M NaH2PO4 pH 7.0
  Sterilization Time: 10.0 min
Staphylococcus aureus; 298.9 PPM, 0.1M NaOAc pH 4.6
  Sterilization Time: 0.5 min
Staphylococcus aureus; [5]
  Sterilization Time (summary): 15 min
Staphylococcus aureus; [6]
  Sterilization Time (summary): 0.5 min
Staphylococcus aureus; [7]
  Sterilization Time: 0.5 min
Staphylococcus aureus; [8]
  Sterilization Time: 2.5 min
Staphylococcus aureus; [9]
  Sterilization Time: 10.0 min
Staphylococcus aureus; [10]
  Sterilization Time: 15 min
Staphylococcus aureus; [11]
  Sterilization Time: 0.5 min
Staphylococcus aureus; 316.6 PPM, 0.1M NaH2PO4 pH 7.0
  Sterilization Time: 5.0 min
Staphylococcus aureus; [12]
  Sterilization Time: 0.5 min
Staphylococcus aureus; [13]
  Sterilization Time: 0.5 min
Staphylococcus aureus; [14]
  Sterilization Time (summary): 0.5 min
Staphylococcus aureus; 1000 PPM, 0.1M NaOAc pH 4.6
  Sterilization Time (summary): 0.5 min
Staphylococcus aureus; [15]
  Sterilization Time: 0.5 min
Staphylococcus aureus; 1014.8 PPM, 0.1M NaOAc pH 4.6
  Sterilization Time: 0.5 min
Staphylococcus aureus; [16]
  Sterilization Time: 2.5 min
